Experimental data from US6881719B2, “β-turn peptidomimetic cyclic compounds” (McGill University, priority 2000, dated 2005).

Legend:
[1] = test system: embryonic rat DRG primary neuronal cultures; assay: Cell survival (MTT), primary DRG cultures; format: cell-based; details: 8 days;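 on % Protection: 100% equals survival with optimal NGF at 1 nM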
Description: Fetal rat DRG primary cultures were established from Sprague Dawley day 17 rat embryos. All ganglia were dissected and dissociated first enzymatically with trypsin and then mechanically. Dissociated cells were cultured (10^5 cells/well) in 96 well plates pre-coated with collagen, and grown for a total of 8 days in Neuro Basal Medium containing N2 supplement (GIBCO, Toronto), antibiotics, and L-glutamine. These DRG cultures are ˜85% TrkA-expressing and are heavily dependent on TrkA signals for survival.
Primary DRG cultures: After a total of 8 days of culture with the indicated test or control ligands, cell survival were studied using the 3(4,5-Dimethylthiazolyl-2)-2,5-diphenyl tetrazolium bromide colorimetric (MTT) assay, and by microscopic observation.
(§1) Cell lines: 5,000 cells/well in protein-free media (PFHM-II, GIBCO, Toronto) containing 0.2% bovine serum albumin (BSA) (Crystalline fraction V, Sigma, St. Louis, Mo.) were seeded in 96 well plates (Falcon, Mississauga, Ontario). The cultures were untreated, or treated with the indicated test or control ligands. Cell viability was quantitated using the MTT assay after 56-72 hours of culture. […] The OD of untreated cells were subtracted. The higher optical density of untreated primary cultures is likely due to cellular heterogeneity and to endogenous production of limiting amounts of growth factors.

TrkA-ECD [2] = target: T1, TrkA-ECD (Homo sapiens, UniProt P04629); assay: ELISA and RIA binding assays of NGF•TrkA-ECD
T1 construct: pure soluble TrkA extracellular domain (TrkA-ECD) produced in baculovirus; made in house
T1 sequence (P04629 33-423 limits assumed): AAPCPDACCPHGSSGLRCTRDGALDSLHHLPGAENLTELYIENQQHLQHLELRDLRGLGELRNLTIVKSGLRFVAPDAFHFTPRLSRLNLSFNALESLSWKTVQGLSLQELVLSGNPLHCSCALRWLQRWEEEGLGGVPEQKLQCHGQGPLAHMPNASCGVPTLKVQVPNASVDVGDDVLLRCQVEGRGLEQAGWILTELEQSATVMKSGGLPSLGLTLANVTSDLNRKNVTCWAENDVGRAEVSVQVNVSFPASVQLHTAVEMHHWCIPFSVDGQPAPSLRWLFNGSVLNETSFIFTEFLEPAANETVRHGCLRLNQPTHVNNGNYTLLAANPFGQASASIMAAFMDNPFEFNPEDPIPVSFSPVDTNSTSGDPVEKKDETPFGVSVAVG

TrkA-ECD [3] = target: T1, TrkA-ECD; assay: ELISA competition of mAb 5C3 binding to immobilized TrkA-ECD; details: for % Binding of mAb 5C3 to TrkA-ECD: mAb 5C3 2 nM
Description: Direct binding studies: were done as described (Saragovi et al., 1998) using 6 ng/well of recombinant baculovirus TrkA-extracellular domain protein (TrkA-ECD) or control bovine serum albumin (BSA, Fraction V, Boehringer Mannheim) immobilized onto 96-well microtest plates. Wells were blocked with binding buffer (BB: PBS with 1% BSA) for 1 hour. Then, 50 ng/well of biotinylated D3 were added as primary reagent in BB for 40 min in the absence or presence of excess non-biotinylated D3 as competitor. Wells were washed 5 times with BB, and horseradish peroxidase (HRP)-coupled avidin (Sigma) was added as secondary reagent for 30 min. Plates were washed in BB, and peroxidase activity was determined colorimetrically using 2,2-azinobis (3-ethylbenzthiazoline sulfonic acid) (ABTS, Sigma). The optical density (OD) was measured at 414 nm in a Microplate reader (Bio-Rad). Assays were repeated at least three times, n=4.
Binding Competition: studies were as described for direct binding assays to TrkA-ECD, except that as primary reagent 50 ng anti-TrkA mAb 5C3/well were added in BB, in the presence or absence of D3 or controls as competitors as described (Saragovi et al., 1998). Wells were washed 5 times with BB, and HRP-coupled goat anti-mouse was added as secondary reagent for 30 min. Plates were washed in BB, and peroxidase activity were determined. Assays were repeated at least three times, n=4.

wild type HEK293 cells = assay: Cell survival control, wild type HEK293 cells; format: cell-based
Description: as §1

TrkA = TrkA (Homo sapiens, UniProt P04629); assay: Inhibition of agonistic activity of mAb 5C3; format: cell-based
TrkA, sequence (P04629 33-796): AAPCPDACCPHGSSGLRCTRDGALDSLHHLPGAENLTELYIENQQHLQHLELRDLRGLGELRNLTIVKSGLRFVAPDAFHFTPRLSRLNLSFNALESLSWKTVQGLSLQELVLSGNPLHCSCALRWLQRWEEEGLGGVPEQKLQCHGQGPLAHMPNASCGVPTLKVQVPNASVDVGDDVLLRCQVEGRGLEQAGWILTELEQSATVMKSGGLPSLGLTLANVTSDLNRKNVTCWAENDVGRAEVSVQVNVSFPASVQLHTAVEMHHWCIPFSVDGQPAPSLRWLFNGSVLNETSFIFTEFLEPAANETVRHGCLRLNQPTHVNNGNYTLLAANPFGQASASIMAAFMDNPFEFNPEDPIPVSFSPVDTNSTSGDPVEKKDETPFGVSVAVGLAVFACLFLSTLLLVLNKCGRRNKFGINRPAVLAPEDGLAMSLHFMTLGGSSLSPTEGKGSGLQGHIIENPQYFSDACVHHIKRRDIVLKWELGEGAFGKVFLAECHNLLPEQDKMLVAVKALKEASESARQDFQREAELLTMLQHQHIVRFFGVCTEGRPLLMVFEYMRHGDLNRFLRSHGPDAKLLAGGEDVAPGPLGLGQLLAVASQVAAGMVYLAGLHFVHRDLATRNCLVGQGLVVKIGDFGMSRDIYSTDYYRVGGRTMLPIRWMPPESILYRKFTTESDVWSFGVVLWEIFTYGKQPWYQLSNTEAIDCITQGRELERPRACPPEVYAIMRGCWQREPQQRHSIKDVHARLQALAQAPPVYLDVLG

[4] = target: T2, NIH3T3 fibroblasts expressing TrkC (Homo sapiens, UniProt Q16288); assay: Cell survival (MTT), NIH-TrkC; format: cell-based; details: for NIH-TrkC % Protection: 72 hours
T2 construct: expressed in transfected cells; host or cells: NIH3T3 fibroblasts
T2 sequence (Q16288 32-839): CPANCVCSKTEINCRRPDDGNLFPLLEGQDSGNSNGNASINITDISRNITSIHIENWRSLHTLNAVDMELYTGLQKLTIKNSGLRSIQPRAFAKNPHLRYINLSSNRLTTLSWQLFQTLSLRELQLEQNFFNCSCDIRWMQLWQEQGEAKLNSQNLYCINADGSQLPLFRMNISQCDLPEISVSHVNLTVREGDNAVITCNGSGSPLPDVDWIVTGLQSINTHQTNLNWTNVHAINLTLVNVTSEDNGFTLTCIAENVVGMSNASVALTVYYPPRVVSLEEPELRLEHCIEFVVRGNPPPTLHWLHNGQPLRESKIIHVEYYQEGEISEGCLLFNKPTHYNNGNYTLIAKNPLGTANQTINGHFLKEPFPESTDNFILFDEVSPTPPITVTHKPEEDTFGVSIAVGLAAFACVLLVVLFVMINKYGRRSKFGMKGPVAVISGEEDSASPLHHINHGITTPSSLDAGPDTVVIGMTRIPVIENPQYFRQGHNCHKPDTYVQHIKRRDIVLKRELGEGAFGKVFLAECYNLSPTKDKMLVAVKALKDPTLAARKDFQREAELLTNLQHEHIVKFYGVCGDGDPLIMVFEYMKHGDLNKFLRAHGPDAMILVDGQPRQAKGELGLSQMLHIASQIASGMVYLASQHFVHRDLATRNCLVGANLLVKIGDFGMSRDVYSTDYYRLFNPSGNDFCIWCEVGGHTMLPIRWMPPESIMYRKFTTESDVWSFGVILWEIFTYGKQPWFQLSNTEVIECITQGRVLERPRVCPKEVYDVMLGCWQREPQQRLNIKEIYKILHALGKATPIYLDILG
From the text: (§2) The 4-3.6 cells are B104 cells stably transfected with human trkA cDNA, and express equal levels of p75 and TrkA (TrkA+ p75+). For screening agents that activate or antagonize TrkC receptors, NIH3T3 fibroblasts were stably transfected with human TrkC cDNA. These cells respond to the ligand NT-3. For screening agents that activate or antagonize TrkA receptors, NIH3T3 fibroblasts were stably transfected with human TrkA cDNA. These cells respond to the ligand NGF.
as §1

physchem = details: water
septal neuronal cultures = assay: ChAT activity in septal neuronal cultures; format: cell-based, rat; details: day 8
Description: Cell cultures were established from the septal area of 17-day-old rat embryos. In brief, tissue was incubated in PBS containing trypsin and DNase. Tissue pieces then were mechanically dissociated. After centrifugation, the pellet was suspended in Leibovitz's L-15 medium. Cells were plated onto 96-multiwell NUNC dishes (10^5 cells/well) coated with poly-D-lysine (5 μg/ml). Pure cultures of septal neurons were treated 1 day after plating. Drugs, prepared in medium, were added directly to the cells without changing the initial medium. The incubation continued for 8 days, at which time ChAT activity was evaluated.
At day 8 of culture, the medium was aspirated, and ice-cold lysis buffer (10 mM sodium phosphate, pH 7.4/0.1% TritonX-100—Trade-mark) was added. ChAT activity assays were performed directly in the wells using Fonnum's method (Fonnum, 1975).

p75 NGF receptor subunit = target: T3, p75 NGF receptor subunit (Rattus norvegicus, UniProt P07174); assay: FACScan competition of anti-p75 mAb MC192 binding on 4-3.6 cells; details: mAb 1 nM; competitor 40 μM
T3 construct: B104 rat neuroblastomas express p75 receptors; endogenous in cells
T3 sequence (P07174 30-425): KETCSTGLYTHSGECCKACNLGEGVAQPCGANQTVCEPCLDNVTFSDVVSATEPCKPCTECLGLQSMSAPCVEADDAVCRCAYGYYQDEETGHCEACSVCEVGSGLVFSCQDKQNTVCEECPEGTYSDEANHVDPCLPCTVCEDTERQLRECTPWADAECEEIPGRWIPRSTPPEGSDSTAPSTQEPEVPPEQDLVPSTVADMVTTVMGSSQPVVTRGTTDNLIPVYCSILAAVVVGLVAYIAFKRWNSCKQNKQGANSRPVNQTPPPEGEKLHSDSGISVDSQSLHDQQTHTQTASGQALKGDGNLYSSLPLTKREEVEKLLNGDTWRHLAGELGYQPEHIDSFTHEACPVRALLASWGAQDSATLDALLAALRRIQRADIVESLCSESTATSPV
From the text: as §2
FACScan binding assays: 4-3.6 cells (2×10^5) in FACScan binding buffer (PBS, 0.5% BSA, and 0.1% NaN3) were immunostained as described (Saragovi et al., 1998). Saturating anti-TrkA mAb 5C3, or anti-p75 mAb MC192, or control non-binding IgGs were added to cells for 1 hour at 4° C., in the presence or absence of D3 as competitor. Excess primary antibody was washed off, and cells were immunostained with fluorescinated goat-anti-mouse IgG secondary antibody. Cells were acquired on a FACScan and mean channel fluorescence of bell-shaped histograms were analyzed using the LYSIS II program.

blocking of NGF•TrkA-ECD interactions (TrkA-ECD [2]): did not substantially block | Kd (TrkA-ECD [3]; calculated from the experimental IC50, read-out: Kd for D3•TrkA-ECD interactions): ~2000 nM | % Binding of mAb 5C3 to TrkA-ECD (TrkA-ECD [3]; competitor 0.05 μM): 100 ± 14% | % Binding of mAb 5C3 to TrkA-ECD (TrkA-ECD [3]; competitor 0.2 μM): 89 ± 8% | % Binding of mAb 5C3 to TrkA-ECD (TrkA-ECD [3]; competitor 1 μM): 64 ± 10% | % Binding of mAb 5C3 to TrkA-ECD (TrkA-ECD [3]; competitor 5 μM): 43 ± 12% | % Binding of mAb 5C3 to TrkA-ECD (TrkA-ECD [3]; competitor 20 μM): 38 ± 7% | % Binding of mAb 5C3 to TrkA-ECD (TrkA-ECD [3]; competitor 40 μM): 31 ± 4% | solubility (physchem): ≥ 5000 µg/mL | % Maximal binding of mAb MC192 (p75 NGF receptor subunit): 101 ± 2%
SMILES: NCCCC[C@@H]1NC(=O)[C@H](CCC(=O)O)NC(=O)c2cc([N+](=O)[O-])ccc2OCCC(C(=O)NCC(=O)O)NC1=O (some centres unmarked) [D3, EKHse-G-OH]
% Protection ([1]; compound 10 μM + NGF 20 pM): 48 ± 3% | Optical Density ([1]; compound 10 μM + NGF 20 pM): 471 ± 28 | % Protection ([1]; compound 10 μM + NGF 500 pM): 84 ± 3% | Optical Density ([1]; compound 10 μM + NGF 500 pM): 603 ± 26 | % Protection ([1]; compound 10 μM + NGF 1 nM): 120 ± 7% | Optical Density ([1]; compound 10 μM + NGF 1 nM): 977 ± 38 | % Protection ([1]; compound 10 μM alone): 38 ± 2% | Optical Density ([1]; compound 10 μM alone): 405 ± 22 | protection from apoptosis (wild type HEK293 cells): neither D3 nor NGF protected | inhibition of optimal agonistic activity of mAb 5C3 (TrkA): inhibited by D3 in a dose-dependent manner | enhancement of NT-3 protection ([4]; NIH3T3 cells stably transfected with trkC cDNA): did not enhance NT-3 protection | NIH-TrkC % Protection ([4]; agent 10 μM + 10 pM NGF): 6 ± 2% | NIH-TrkC % Protection ([4]; agent 10 μM alone): 3 ± 3% | ChAT Activity (septal neuronal cultures; compound 0.2 μM + 10 pM NGF): 0.60 ± 0.04 pmol Ach/min/well | Fold Increase (ChAT activity) (septal neuronal cultures; compound 0.2 μM + 10 pM NGF): 2.00 | ChAT Activity (septal neuronal cultures; compound 0.2 μM alone): 0.37 ± 0.05 pmol Ach/min/well | Fold Increase (ChAT activity) (septal neuronal cultures; compound 0.2 μM alone): 1.23 | ChAT Activity (septal neuronal cultures; compound 2 μM + 10 pM NGF): 0.76 ± 0.03 pmol Ach/min/well | Fold Increase (ChAT activity) (septal neuronal cultures; compound 2 μM + 10 pM NGF): 2.53 | ChAT Activity (septal neuronal cultures; compound 2 μM alone): 0.44 ± 0.02 pmol Ach/min/well | Fold Increase (ChAT activity) (septal neuronal cultures; compound 2 μM alone): 1.47 | ChAT Activity (septal neuronal cultures; compound 20 μM + 10 pM NGF): 0.79 ± 0.04 pmol Ach/min/well | Fold Increase (ChAT activity) (septal neuronal cultures; compound 20 μM + 10 pM NGF): 2.63 | ChAT Activity (septal neuronal cultures; compound 20 μM alone): 0.48 ± 0.06 pmol Ach/min/well | Fold Increase (ChAT activity) (septal neuronal cultures; compound 20 μM alone): 1.56
